Test results reported in the NIST ThermoML archive (doi:10.1016/j.tca.2006.04.022).
Numbers after ± are expanded uncertainties.

Conditions: Adiabatic calorimetry

Glass transition temperature: -80.30 ± 0.05 °C
SMILES: CCOS(=O)(=O)[O-].CCn1cc[n+](C)c1 [1-ethyl-3-methylimidazolium ethyl sulfate]
